According to patent US11197965B2, “Method and system for the administration of a pulmonary surfactant by atomization” (CHIESI FARMACEUTICI S.p.A., priority 2013, dated 2021):

Settings: in vivo
Description: Old piglets, weighing between 0.8-2.0 kg, were used.
The procedure was carried out as follows: piglets inhaled 10 mg of lidocaine and lidocaine gel was applied in the oropharynx just before the insertion of a Mayo oropharyngeal atomization cannula. The piglets were then laid on one side according to the randomization protocol, and correct positioning of the oropharyngeal cannula just above the larynx entrance was assessed by fiberbronchoscopy. Curosurf® was thoroughly mixed with 300 MBq of Tc-labeled nanocolloid and the animals received a total of 200 mg/kg Curosurf® (80 mg/mL) through an atomization catheter placed inside the oropharyngeal airway. The surfactant atomization procedure was divided in 4 stages (doses): each stage consisted in the delivery of one fourth of the total surfactant dose with the piglet breathing spontaneously on nasal-CPAP (via special “snout-mask”, see details in methods), followed by 5 minutes of PS-ventilation with PEEP (via snout-mask) to avoid atelectasis and promote delivery of the surfactant to the lower airways. When all the surfactant had been delivered, the oropharyngeal cannula was removed and the piglet received PS-ventilation for 15 min. FiO2 was adjusted to maintain saturation above 85%. To secure the airway under transportation to the gamma camera and scintigraphy, the animals were endotracheally intubated and manually ventilated with a Laerdal Silicone Resuscitator.
The piglets were premedicated with i.m. ketamine, midazolam, and atropine, an ear vein was cannulated, and the animals were sedated with a continuous iv. infusion of dexmedetomedine and ketamine. Sedation was supplemented with small intermittent boluses of iv. propofol when needed. An arterial catheter was placed in the femoral artery under local anaesthesia. Invasive blood pressure, pulse oximetry, cerebral oximetry (INVOS), and the diaphragmatic electrical activity (NAVA catheter) were monitored in all animals.
Group-assignment was random, and arranged so that pigs from the same litter were distributed evenly among the groups, when possible. […]

## poractant alfa [Curosurf]
  amount of surfactant deposited into the lung compartment: more than 61%
200 mg/kg
  percentage of surfactant deposited, pharynx (mean): 11.1 percentage
  percentage of surfactant deposited, trachea (mean): 13.5 percentage
